# Measured values reported in US10118902B2 (Sanford Burnham Prebys Medical Discovery Institute, priority 2014, dated 2018).
# Target: neurotensin receptor 1 (NTR1) (Homo sapiens (Human), UniProt P30989)
# Assay: NTR1 dose response, high-content imaging beta-arrestin-GFP assay in NTR1-U2OS cells
# Assay type: cell-based
# Parameters: scale not given here
# Settings: not given
# Chain of neurotensin receptor 1 (NTR1) (P30989 whole entry, species assumed): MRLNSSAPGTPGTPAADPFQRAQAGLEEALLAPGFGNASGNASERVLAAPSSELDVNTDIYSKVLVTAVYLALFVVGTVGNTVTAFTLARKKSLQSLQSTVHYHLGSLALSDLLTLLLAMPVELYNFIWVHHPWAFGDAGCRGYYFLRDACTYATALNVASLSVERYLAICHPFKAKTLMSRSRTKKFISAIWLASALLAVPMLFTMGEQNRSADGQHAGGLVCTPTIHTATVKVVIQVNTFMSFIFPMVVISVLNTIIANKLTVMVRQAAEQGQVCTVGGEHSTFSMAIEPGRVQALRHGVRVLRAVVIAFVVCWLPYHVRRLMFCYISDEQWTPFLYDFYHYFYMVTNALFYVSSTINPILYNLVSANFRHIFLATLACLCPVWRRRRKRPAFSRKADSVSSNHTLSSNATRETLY
row,SMILES,EC50
1,"COc1ccccc1C1CCN(c2nc(C3CCC3)nc3ccc(N(C)C)cc23)CC1 [Example 42, {2-cyclobutyl-4-[4-(2-methoxy-phenyl)-piperidin-1-yl]-quinazolin-6-yl}-dimethyl-amine]",C or D

# Same assay, conditions: read-out: EC50
row,SMILES,EC50 [µM]
1,"COc1cccc2c1CCN(c1nc(C3CC3)nc3ccc(N(C)CCO)cc13)CC2 [Example 150, 2-{[2-cyclopropyl-4-(6-methoxy-1,2,4,5-tetrahydro-benzo[d]azepin-3-yl)-quinazolin-6-yl]-methyl-amino}-ethanol]",> 10
2,"COc1ccccc1C1CCN(c2nc(C3CC3)nc3ccc(N4CCC(O)CC4)cc23)CC1 [Example 76, 1-{2-cyclopropyl-4-[4-(2-methoxy-phenyl)-piperidin-1-yl]-quinazolin-6-yl}-piperidin-4-ol]",2 to 10
3,"COc1ccccc1C1CCN(c2nc(C3(F)CC3)nc3c(Cl)cc(N4CC[C@@H](O)C4)cc23)CC1 (stereo in doubt) [Example 202, 1-{8-Chloro-2-(1-fluoro-cyclopropyl)-4-[4-(2-methoxy-phenyl)-piperidin-1-yl]-quinazolin-6-yl}-pyrrolidin-3-ol]",0.5 to 2
4,"COc1ncccc1C1CCN(c2nc(C3(F)CC3)nc3c(F)cc(N(C)CCO)cc23)CC1 [Example 214, 2-{[8-Fluoro-2-(1-fluoro-cyclopropyl)-4-(2-methoxy-3′,4′,5′,6′-tetrahydro-2′H-[3,4′]bipyridinyl-1′-yl)-quinazolin-6-yl]-methyl-amino}-ethanol]",0.5 to 2
5,"Cc1cc2nc(C3CC3)nc(N3CCC(c4ccccc4N(C)C)CC3)c2cc1N(C)CCO [Example 116, 2-({2-cyclopropyl-4-[4-(2-dimethylamino-phenyl)-piperidin-1-yl]-7-methyl-quinazolin-6-yl}-methyl-amino)-ethanol]",0.5 to 2
6,"CCCN(C)c1cccc2c(N3CCC(c4ccccc4OC)CC3)nc(C3CC3)nc12 [Example 128, {2-cyclopropyl-4-[4-(2-methoxy-phenyl)-piperidin-1-yl]-quinazolin-8-yl}-methyl-propyl-amine]",> 10
7,"CN(CCN1CCOCC1)c1ccc2nc(C3CC3)nc(N3CCN(C4CCCC4O)CC3)c2c1 (centres unmarked) [Example 142, 2-(4-{2-cyclopropyl-6-[methyl-(2-morpholin-4-yl-ethyl)-amino]-quinazolin-4-yl}-piperazin-1-yl)-cyclopentanol]",> 10
8,"COc1ccccc1C1CCN(c2nc(C3CC3)nc3ccc(N(C)CCO)c(F)c23)CC1 [Example 167, 2-({2-Cyclopropyl-5-fluoro-4-[4-(2-methoxy-phenyl)-piperidin-1-yl]-quinazolin-6-yl}-methyl-amino)-ethanol]",0.5 to 2
9,"COc1nccnc1C1CCN(c2nc(C3(F)CC3)nc3ccc(N(C)CCO)cc23)CC1 [Example 208, 2-({2-(1-Fluoro-cyclopropyl)-4-[4-(3-methoxy-pyrazin-2-yl)-piperidin-1-yl]-quinazolin-6-yl}-methyl-amino)-ethanol]",0.5 to 2
10,"CCCN(C)c1cc2c(N3CCC(c4cc(F)ccc4OC)CC3)nc(C3CC3)nc2cc1C [Example 123, {2-cyclopropyl-4-[4-(5-fluoro-2-methoxy-phenyl)-piperidin-1-yl]-7-methyl-quinazolin-6-yl}-methyl-propyl-amine]",> 10
11,"COCCN(C)c1ccc2nc(-c3ccccc3)nc(N3CCC(c4ccccc4OC)CC3)c2c1 [Example 145, (2-methoxy-ethyl)-{4-[4-(2-methoxy-phenyl)-piperidin-1-yl]-2-phenyl-quinazolin-6-yl}-methyl-amine]",> 10
12,"COc1cncnc1C1CCN(c2nc(C3(F)CC3)nc3c(F)cc(N(C)CCO)cc23)CC1 [Example 217, 2-({8-Fluoro-2-(1-fluoro-cyclopropyl)-4-[4-(5-methoxy-pyrimidin-4-yl)-piperidin-1-yl]-quinazolin-6-yl}-methyl-amino)-ethanol]",> 10
13,"CCCN(C)c1ccc2c(N3CCC(c4ccccc4OC)CC3)nc(C3CC3)nc2c1 [Example 170, {2-Cyclopropyl-4-[4-(2-methoxy-phenyl)-piperidin-1-yl]-quinazolin-7-yl}-methyl-propyl-amine]",2 to 10
14,"COCCN(C)c1ccc2nc(C3(C)CC3)nc(N3CCC(c4ccccc4OC)CC3)c2c1 [Example 33, N-(2-methoxyethyl)-4-(4-(2-methoxyphenyl)piperidin-1-yl)-N-methyl-2-(1-methylcyclopropyl)quinazolin-6-amine]",2 to 10
15,"COc1ccccc1C1CCN(c2nc(C3(F)CCC3)nc3cnc(N4CC[C@@H](O)C4)cc23)CC1 [Example 199, 1-{2-(1-Fluoro-cyclobutyl)-4-[4-(2-methoxy-phenyl)-piperidin-1-yl]-pyrido[3,4-d]pyrimidin-6-yl}-pyrrolidin-3-ol]",2 to 10
16,"COc1ccccc1C1CCN(c2nc(-c3ccccc3)nc3ccc(N(C)CCO)cc23)CC1 [Example 144, 2-({4-[4-(2-methoxy-phenyl)-piperidin-1-yl]-2-phenyl-quinazolin-6-yl}-methyl-amino)-ethanol]",2 to 10
17,"COc1ccccc1C1CCN(c2nc(C)c(CC(=O)N(C)CCO)c(C3CC3)n2)CC1 [Example 163, 2-{4-cyclopropyl-2-[4-(2-methoxy-phenyl)-piperidin-1-yl]-6-methyl-pyrimidin-5-yl}-N-(2-hydroxy-ethyl)-N-methyl-acetamide]",> 10

row,SMILES,EC50 [µM]
1,"COc1ccccc1C1CCN(c2nc(C3CC3)nc3cccc(N(C)CCO)c23)CC1 [Example 168, 2-({2-Cyclopropyl-4-[4-(2-methoxy-phenyl)-piperidin-1-yl]-quinazolin-5-yl}-methyl-amino)-ethanol]",> 10
2,"CN(CCOCCF)c1ccc2nc(C3(F)CC3)nc(N3CCC(c4ccccc4OCCF)CC3)c2c1 [Example 222, (2-(1-Fluoro-cyclopropyl)-4-{4-[2-(2-fluoro-ethoxy)-phenyl]-piperidin-1-yl}-quinazolin-6-yl)-[2-(2-fluoro-ethoxy)-ethyl]-methyl-amine]",2 to 10
3,"COc1ccccc1N1CC2(C1)CN(c1nc(C3CC3)nc3ccc(N(C)CCO)cc13)C2 [Example 99, 2-({2-cyclopropyl-4-[6-(2-methoxy-phenyl)-2,6-diaza-spiro [3.3]hept-2-yl]-quinazolin-6-yl}-methyl-amino)-ethanol]",2 to 10
4,"COCCN(C)c1ccc2nc(C3(C)CC3)nc(N3CCC(c4ccccc4N4CCC4)CC3)c2c1 [Example 31, [4-[4-(2-azetidin-1-yl-phenyl)-piperidin-1-yl]-2-(1-methyl-cyclopropyl)-quinazolin-6-yl]-(2-methoxy-ethyl)-methyl-amine]",> 10
5,"CN(C)c1ccccc1C1CCN(c2nc(C3(F)CCC3)nc3ccc(N(C)CCO)cc23)CC1 [Example 61, 2-{[4-[4-(2-dimethylamino-phenyl)-piperidin-1-yl]-2-(1-fluoro-cyclobutyl)-quinazolin-6-yl]-methyl-amino}-ethanol]",< 0.5
6,"COc1ccccc1C1CCN(c2nc(C3CC3)nc3ccc(N4CC[C@H](O)C4)cc23)CC1 [Example 82, (S)-1-(2-cyclopropyl-4-(4-(2-methoxyphenyl)piperidin-1-yl)quinazolin-6-yl)pyrrolidin-3-ol]",0.5 to 2
7,"COc1ccc(F)cc1C1CCN(c2nc(C3CC3)nc3ccc(N(C)CCO)cc23)CC1 [Example 109, 2-({2-cyclopropyl-4-[4-(5-fluoro-2-methoxy-phenyl)-piperidin-1-yl]-quinazolin-6-yl}-methyl-amino)-ethanol]",0.5 to 2
8,"COc1ccncc1C1CCN(c2nc(C3(F)CC3)nc3ccc(N(C)CCO)cc23)CC1 [Example 210, 2-{[2-(1-Fluoro-cyclopropyl)-4-(4-methoxy-3′,4′,5′,6′-tetrahydro-2′H-[3,4′]bipyridinyl-1′-yl)-quinazolin-6-yl]-methyl-amino}-ethanol]",2 to 10
9,"COc1ccccc1C1CCN(c2nc(C3(F)CC3)nc3cnc(N(C)CCO)cc23)CC1 [Example 195, 2-({2-(1-Fluoro-cyclopropyl)-4-[4-(2-methoxy-phenyl)-piperidin-1-yl]-pyrido[3,4-d]pyrimidin-6-yl}-methyl-amino)-ethanol]",< 0.5
10,"CN(C)c1ccccc1C1CCN(c2nc(C3(C)CCCC3)nc3ccc(N(C)CCO)cc23)CC1 [Example 53, {[4-[4-(2-Dimethylamino-phenyl)-piperidin-1-yl]-2-(1-methyl-cyclopentyl)-quinazolin-6-yl]-methyl-amino}-ethanol]",2 to 10
11,"COc1cc(F)ccc1C1CCN(c2nc(C3CC3)nc3cc(Cl)c(N(C)CCO)cc23)CC1 [Example 112, 2-({7-chloro-2-cyclopropyl-4-[4-(4-fluoro-2-methoxy-phenyl)-piperidin-1-yl]-quinazolin-6-yl}-methyl-amino)-ethanol]",> 10
12,"COc1ccccc1C1CCN(c2nc(C3CC3)nc3ccc(N4CCC(OC)C4)cc23)CC1 (centres unmarked) [Example 80, 2-cyclopropyl-4-[4-(2-methoxy-phenyl)-piperidin-1-yl]-6-(3-methoxy-pyrrolidin-1-yl)-quinazoline]",0.5 to 2
13,"CCCN(C)c1ccc2nc(NC3CCC3)nc(N3CCC(c4ccccc4OC)CC3)c2c1 [Example 97, N2-Cyclobutyl-4-[4-(2-methoxy-phenyl)-piperidin-1-yl]-N6-methyl-N6-propyl-quinazoline-2,6-diamine]",> 10
14,"CCCN(C)c1ccc2nc(C3CC3)nc(N3CCN(C4CCCC4OC)CC3)c2c1 (centres unmarked) [Example 185, 2-cyclopropyl-4-(4-(2-methoxycyclopentyl)piperazin-1-yl)-N-methyl-N-propylquinazolin-6-amine]",> 10
15,"CN(CCO)c1ccc2nc(C3(F)CC3)nc(N3CCC(C4CCCCC4)CC3)c2c1 [Example 139, 2-((4-(4-cyclohexylpiperidin-1-yl)-2-(1-fluorocyclopropyl)quinazolin-6-yl)(methyl)amino)ethanol]",> 10
16,"COc1ccccc1C1CCN(c2nc(C3(F)CCC3)nc3ccc(N(C)CCN4CCOCC4)cc23)CC1 [Example 60, {2-(1-fluoro-cyclobutyl)-4-[4-(2-methoxy-phenyl)-piperidin-1-yl]-quinazolin-6-yl}-methyl-(2-morpholin-4-yl-ethyl)-amine]",< 0.5
17,"COc1ccccc1C1CCN(c2nc(C3(F)CC3)nc3cnc(N4CC[C@H](O)C4)cc23)CC1 [Example 196, 1-{2-(1-Fluoro-cyclopropyl)-4-[4-(2-methoxy-phenyl)-piperidin-1-yl]-pyrido[3,4-d]pyrimidin-6-yl}-pyrrolidin-3-ol]",0.5 to 2
